Measurements: patent US20260007133A1, “HERBICIDAL COMPOSITION COMPRISING AZINE COMPOUNDS” (BASF SE, priority 2022, published 2026)
Where “and” joins values, the source holds several entries; their conditions need not be identical. Equal values may be shown once. Read-outs that look alike come from different tables or passages of the source.

Assays:
Assay type in all cases: in vivo
Abutilon theophrasti = assay: Greenhouse pre-emergence (PRE) herbicidal test on ABUTH; conditions: Abutilon theophrasti, pre-emergence, PRE; for pest or weed control at 2 g/ha: I-3 solo 2 gai/ha
How it was run: (§1)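 Scoring ran from 0 (normal growth) to 100 (no emergence or above-ground parts fully destroyed) and was done 20 DAT. Application was pre-emergent in pots of loamy sand (~3.0% humus) sown per species. Plants grew at 10-25° C or 20-35° C by species.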

Alopecurus myosuroides = assay: Greenhouse pre-emergence (PRE) herbicidal test on ALOMY; conditions: Alopecurus myosuroides, pre-emergence
How it was run: as §1

Amaranthus retroflexus = assay: Greenhouse pre-emergence (PRE) herbicidal test on AMARE; conditions: Amaranthus retroflexus, pre-emergence, 480 h, PRE, 20 DAT; for inhibition at 2 g/ha: AMARE
How it was run: as §1

Ipomoea hederacea [1] = assay: Greenhouse pre-emergence (PRE) herbicidal test on IPOHE; conditions: Ipomoea hederacea, pre-emergence; for inhibition at 8 g/ha: use rate 8 gai/ha
How it was run: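 Visual rating on a 0 (normal growth) to 100 (no emergence or above-ground kill) scale at 20 DAT. Treatment was pre-emergence spray of aqueous suspension/emulsion right after sowing into loamy sand with ~3.0% humus; covered until rooted, grown at 10-25° C or 20-35° C depending on species.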

Digitaria sanguinalis = assay: Greenhouse post-emergence (POST) herbicidal test on DIGSA; conditions: for pest or weed control at 2 g/ha: I-3 solo 2 gai/ha
How it was run: (§2)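 Plants grown in pots of loamy sand (~3.0% humus) to 3–15 cm height, then sprayed with compounds suspended or emulsified in water (formulated as 5% by weight emulsion concentrate). Kept at 10-25° C or 20-35° C by species; injury scored 0–100 (100 = complete destruction) at 20 DAT.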

Geranium pusillum = assay: Greenhouse post-emergence (POST) herbicidal test on GERPU; conditions: for inhibition at 2 g/ha: use rate 2 gai/ha; for inhibition at 4 g/ha: use rate 4 gai/ha
How it was run: as §2

Ipomoea hederacea [2] = assay: Greenhouse post-emergence (POST) herbicidal test on IPOHE; conditions: Ipomoea hederacea, post-emergence
How it was run: as §2

AMAPA = assay: Greenhouse pre-emergence (PRE) herbicidal test on AMAPA; conditions: pre-emergence

COc1c(Cl)cc(F)c(F)c1Nc1nc(N)nc(C(C)(C)F)n1 [Compound I-3]
pest or weed control at 2 g/ha (Abutilon theophrasti; 432 h, ABUTH, 18 DAT): 70% | pest or weed control at 8 g/ha (Abutilon theophrasti; 480 h, 8 gai/ha, 20 DAT): 70% | inhibition at 2 g/ha (Abutilon theophrasti; 480 h, ABUTH, 2 gai/ha, 20 DAT, read-out: % activity solo application): 25% | inhibition at 8 g/ha (Abutilon theophrasti; 480 h, ABUTH, 8 gai/ha, 20 DAT, read-out: % activity solo application): 80% | pest or weed control at 2 g/ha (Abutilon theophrasti; 480 h, ABUTH, 20 DAT): 10% | inhibition at 2 g/ha (Abutilon theophrasti; 480 h, ABUTH, use rate 2 gai/ha, 20 DAT, read-out: solo application % activity): 25% | inhibition at 8 g/ha (Abutilon theophrasti; 480 h, ABUTH, use rate 8 gai/ha, 20 DAT, read-out: % activity): 70% | inhibition at 8 g/ha (Abutilon theophrasti; 480 h, ABUTH, use rate 8 gai/ha, 20 DAT, read-out: solo application % activity): 85% | inhibition at 2 g/ha (Abutilon theophrasti; 480 h, use rate 2 gai/ha, 20 DAT, read-out: % activity): 10% | inhibition at 2 g/ha (Abutilon theophrasti; ABUTH, use rate 2 gai/ha, read-out: % activity): 65% | inhibition at 4 g/ha (Abutilon theophrasti; ABUTH, use rate 4 gai/ha): 65% | pest or weed control at 2 g/ha (Alopecurus myosuroides; 480 h, PRE, 2 gai/ha, 20 DAT, read-out: % activity): 10% | pest or weed control at 8 g/ha (Alopecurus myosuroides; 480 h, PRE, 8 gai/ha, 20 DAT): 70% | inhibition at 2 g/ha (Alopecurus myosuroides; 480 h, PRE, ALOMY, 2 gai/ha, 20 DAT, read-out: % activity solo application): 5% | inhibition at 8 g/ha (Alopecurus myosuroides; 480 h, PRE, ALOMY, 8 gai/ha, 20 DAT, read-out: % activity solo application): 90% | inhibition at 8 g/ha (Alopecurus myosuroides; 480 h, PRE, ALOMY, use rate 8 gai/ha, 20 DAT, read-out: solo application % activity): 90% | inhibition at 2 g/ha (Alopecurus myosuroides; 480 h, PRE, use rate 2 gai/ha, 20 DAT, read-out: % activity): 65% | inhibition at 2 g/ha (Alopecurus myosuroides; ALOMY PRE, use rate 2 gai/ha, read-out: % activity): 25% | inhibition at 4 g/ha (Alopecurus myosuroides; PRE, ALOMY, use rate 4 gai/ha): 90% | pest or weed control at 2 g/ha (Amaranthus retroflexus; 2 gai/ha): 90% | inhibition at 2 g/ha (Amaranthus retroflexus; 2 gai/ha, read-out: % activity solo application): 60% | inhibition at 2 g/ha (Amaranthus retroflexus; use rate 2 gai/ha, read-out: solo application % activity): 60% | inhibition at 4 g/ha (Ipomoea hederacea [1]; 480 h, PRE, IPOHE, use rate 4 gai/ha, 20 DAT): 5% | inhibition at 8 g/ha (Ipomoea hederacea [1]; 480 h, PRE, IPOHE, 20 DAT): 30% | inhibition at 16 g/ha (Ipomoea hederacea [1]; 480 h, PRE, IPOHE, use rate 16 gai/ha, 20 DAT): 40% | inhibition at 32 g/ha (Ipomoea hederacea [1]; 480 h, PRE, IPOHE, use rate 32 gai/ha, 20 DAT): 40% | inhibition at 8 g/ha (Ipomoea hederacea [1]; IPOHE PRE): 35% | % activity (Digitaria sanguinalis; DIGSA POST, use rate 2 gai/ha): 0% | % activity (Digitaria sanguinalis; DIGSA POST, use rate 8 gai/ha): 75% and 50% | inhibition at 2 g/ha (Digitaria sanguinalis; Digitaria sanguinalis, post-emergence, 432 h, POST, DIGSA, 2 gai/ha, 18 DAT, read-out: % activity solo application): 10% | inhibition at 8 g/ha (Digitaria sanguinalis; Digitaria sanguinalis, post-emergence, 432 h, POST, DIGSA, 8 gai/ha, 18 DAT, read-out: % activity solo application): 10% | pest or weed control at 2 g/ha (Digitaria sanguinalis; Digitaria sanguinalis, post-emergence, 432 h, POST, DIGSA, 18 DAT): 10% | pest or weed control at 8 g/ha (Digitaria sanguinalis; Digitaria sanguinalis, post-emergence, 432 h, POST, DIGSA, I-3 solo 8 gai/ha, 18 DAT): 10% | inhibition at 8 g/ha (Digitaria sanguinalis; Digitaria sanguinalis, post-emergence, 480 h, DIGSA POST, 20 DAT, use rate 8 gai/ha, read-out: % activity): 40% | pest or weed control at 8 g/ha (Digitaria sanguinalis; Digitaria sanguinalis, post-emergence, 480 h, POST, 8 gai/ha, 20 DAT): 40% | inhibition at 8 g/ha (Digitaria sanguinalis; Digitaria sanguinalis, post-emergence, 480 h, POST, DIGSA, 8 gai/ha, 20 DAT, read-out: % activity solo application): 85% | pest or weed control at 2 g/ha (Digitaria sanguinalis; Digitaria sanguinalis, post-emergence, 480 h, POST, DIGSA, 20 DAT): 5% | inhibition at 8 g/ha (Digitaria sanguinalis; Digitaria sanguinalis, post-emergence, 480 h, POST, DIGSA, use rate 8 gai/ha, 20 DAT, read-out: solo application % activity): 10% | solo application % activity (Digitaria sanguinalis; POST, DIGSA, use rate 2 gai/ha, 20 DAT): 0% | % activity (Geranium pusillum; GERPU POST, use rate 8 gai/ha): 50% | pest or weed control at 2 g/ha (Geranium pusillum; Geranium pusillum, post-emergence, 432 h, POST, GERPU, I-3 solo 2 gai/ha, 18 DAT): 25% | inhibition at 2 g/ha (Geranium pusillum; Geranium pusillum, post-emergence, 480 h, GERPU POST, 20 DAT, read-out: % activity): 25% | pest or weed control at 2 g/ha (Geranium pusillum; Geranium pusillum, post-emergence, 480 h, POST, 2 gai/ha, 20 DAT): 10% | pest or weed control at 8 g/ha (Geranium pusillum; Geranium pusillum, post-emergence, 480 h, POST, 8 gai/ha, 20 DAT): 75% | pest or weed control at 2 g/ha (Geranium pusillum; Geranium pusillum, post-emergence, 480 h, POST, GERPU, I-3 solo 2 gai/ha, 20 DAT): 20% | pest or weed control at 8 g/ha (Geranium pusillum; Geranium pusillum, post-emergence, 480 h, POST, GERPU, I-3 solo 8 gai/ha, 20 DAT): 10% | inhibition at 4 g/ha (Geranium pusillum; Geranium pusillum, post-emergence, 480 h, POST, GERPU, 20 DAT): 0% | inhibition at 16 g/ha (Geranium pusillum; Geranium pusillum, post-emergence, 480 h, POST, GERPU, use rate 16 gai/ha, 20 DAT): 10% | inhibition at 2 g/ha (Geranium pusillum; Geranium pusillum, post-emergence, GERPU POST, read-out: % activity): 30% | inhibition at 8 g/ha (Geranium pusillum; Geranium pusillum, post-emergence, GERPU POST, use rate 8 gai/ha, read-out: % activity): 70% | inhibition at 2 g/ha (Geranium pusillum; Geranium pusillum, post-emergence, POST, GERPU, read-out: % activity): 20% | inhibition at 4 g/ha (Geranium pusillum; Geranium pusillum, post-emergence, POST, GERPU): 40% | pest or weed control at 8 g/ha (Ipomoea hederacea [2]; 480 h, POST, 8 gai/ha, 20 DAT): 90% | inhibition at 2 g/ha (Ipomoea hederacea [2]; 480 h, POST, IPOHE, 2 gai/ha, 20 DAT, read-out: % activity solo application): 80% | inhibition at 8 g/ha (Ipomoea hederacea [2]; 480 h, POST, IPOHE, 8 gai/ha, 20 DAT, read-out: % activity solo application): 70% | inhibition at 2 g/ha (Ipomoea hederacea [2]; IPOHE POST, use rate 2 gai/ha, read-out: % activity): 65% | inhibition at 1 g/ha (AMAPA; 240 h, use rate 1 gai/ha, 10 DAT): 40% | inhibition at 2 g/ha (AMAPA; 240 h, use rate 2 gai/ha, 10 DAT): 60% | inhibition at 8 g/ha (AMAPA; 480 h, use rate 8 gai/ha, 20 DAT): 60%
